Measurements as given in patent US10280167B2, “Purine derivatives for the treatment of viral infections” (JANSSEN SCIENCES IRELAND UC, priority 2011, dated 2019).

The compounds below were run on human TLR7 dIRR2 mutant (assay: Reporter assay for TLR7 activity, HEK293 transfected with mutant TLR7 (dIRR2 deletion) and NFκB-luc). Conditions: lowest effective concentration; 48 h transfection.
Assay type: cell-based

SMILES | TLR7-dIRR2_LEC 48 h [µM]
Nc1nc(-c2ncc[nH]2)nc2c1[nH]c(=O)n2Cc1ccccc1 [Compound 4] | 0.04
Cc1ccc(Cn2c(=O)[nH]c3c(N)nc(-c4ncc[nH]4)nc32)cn1 [Compound 9] | 0.07
CN1CCN(CCCCCn2c(=O)[nH]c3c(N)nc(-c4ncc[nH]4)nc32)CC1 [Compound 61] | 9.73
Nc1nc(-c2nc(C3CC3)c[nH]2)nc2c1[nH]c(=O)n2Cc1ccc2c(c1)CNCC2 [Compound 60] | 1.25
Nc1nc(-c2nc(C3CC3)c[nH]2)nc2c1[nH]c(=O)n2CCCCCCN1CCCC1 [Compound 62] | >25
COCCc1nnc(-c2nc(N)c3[nH]c(=O)n(Cc4ccccc4)c3n2)o1 [Compound 34] | 1.21
Nc1nc(-n2cccn2)nc2c1[nH]c(=O)n2Cc1ccccc1 [Compound 36] | 0.017
Cc1[nH]c(-c2nc(N)c3[nH]c(=O)n(Cc4ccccc4)c3n2)nc1C1CC1 [Compound 5] | 1.13
Nc1nc(-c2ncc[nH]2)nc2c1[nH]c(=O)n2CC1CCOCC1 [Compound 63] | 2.58

What follows are compounds tested on human TLR7 dIRR2 mutant in the same assay as above. Conditions: lowest effective concentration; 24 h transfection.
Assay type: cell-based
Description: Reporter Assays for Assessment of TLR7 Activity (24 h)
The ability of compounds to activate human TLR7 was assessed in a cellular reporter assay using HEK293 cells transiently transfected with a TLR7 or TLR8 expression vector and NFκB-luc reporter construct. In one instance the TLR expression construct expresses the respective wild type sequence or a mutant sequence comprising a deletion in the second leucine-rich repeat (dIRR2) of the TLR.
Briefly, HEK293 cells were grown in culture medium (DMEM supplemented with 10% FCS and 2 mM Glutamine). For transfection of cells in 10 cm dishes, cells were detached with Trypsin-EDTA, transfected with a mix of CMV-TLR7 or TLR8 plasmid (750 ng), NFκB-luc plasmid (375 ng) and a transfection reagent and incubated 24 hours or 48 hours respectively at 37° C. in a humidified 5% CO2 atmosphere. Transfected cells were then detached with Trypsin-EDTA, washed in PBS and resuspended in medium to a density of 1.67×10^5 cells/mL. Thirty microliters of cells were then dispensed into each well in 384-well plates, where 10 μL of compound in 4% DMSO was already present. Following 6 hours incubation at 37° C., 5% CO2, the luciferase activity was determined by adding 15 μl of Steady Lite Plus substrate (Perkin Elmer) to each well and readout performed on a ViewLux ultraHTS microplate imager (Perkin Elmer). Dose response curves were generated from measurements performed in quadruplicates. Lowest effective concentrations (LEC) values, defined as the concentration that induces an effect which is at least two fold above the standard deviation of the assay, were determined for each compound. Compound toxicity was determined in parallel using a similar dilution series of compound with 30 μL per well of cells transfected with the CMV-TLR7 construct alone (1.67×10^5 cells/mL), in 384-well plates. Cell viability was measured after 6 hours incubation at 37° C., 5% CO2 by adding 15 μL of ATP lite (Perkin Elmer) per well and reading on a ViewLux ultraHTS microplate imager (Perkin Elmer). Data was reported as CC50.

SMILES | TLR7-dIRR2_LEC 24 h [µM]
Nc1nc(-c2ncc[nH]2)nc2c1[nH]c(=O)n2Cc1ccccc1 [Compound 4] | 0.077
Cc1[nH]c(-c2nc(N)c3[nH]c(=O)n(Cc4ccccc4)c3n2)nc1C1CC1 [Compound 5] | 2.2

What follows are compounds tested on Huh-7 luc/neo HCV replicon cells with conditioned media from PBMC (assay: Interferon production in human PBMC (PBMC-HUH7_EC50), HCV replicon readout with conditioned media). Conditions: Homo sapiens, Huh-7; concentration applied to PBMCs giving 50% reduction of replicon luciferase activity.
Assay type: cell-based
Description: Measurement of Interferon Production in Human PBMC (PBMC-HUH7_EC50)
Activation of human TLR7 results in robust production of interferon by plasmacytoid dendritic cells present in human blood. The potential of compounds to induce interferon was evaluated by looking at the antiviral activity in the HCV replicon system upon incubation with conditioned media from peripheral blood mononuclear cells (PBMC). The HCV replicon assay is based on a bicistronic expression construct, as described by Lohmann et al. (Science (1999) 285: 110-113; Journal of Virology (2003) 77: 3007-15 3019) with modifications described by Krieger et al. (Journal of Virology (2001) 75: 4614-4624). The assay utilized the stably transfected cell line Huh-7 luc/neo harboring an RNA encoding a bicistronic expression construct comprising the wild type NS3-NS5B regions of HCV type 1b translated from an Internal Ribosome Entry Site (IRES) from encephalomyocarditis virus (EMCV), preceded by a reporter gene (Firefly-luciferase) and a selectable marker gene (neoR, neomycine phosphotransferase). The construct is flanked by 5′ and 3′ NTRs (non-translated regions) from HCV type 1b. Continued culture of the replicon cells in the presence of G418 (neoR) is dependent on the replication of the HCV RNA. The stably transfected replicon cells that replicate HCV RNA autonomously and to high levels, encoding inter alia luciferase, were used for profiling of the conditioned cell culture media. Briefly, PBMCs were prepared from buffy coats of at least two donors using a standard Ficoll centrifugation protocol. Isolated PBMCs were resuspended in RPMI medium supplemented with 10% human AB serum and 2×10^5 cells/well were dispensed into 384-well plates containing compounds (70 μL total volume). After overnight incubation, […] was transferred to 384-well plates containing 2.2×10^3 replicon cells/well in 30 μL (plated the day before). Following 24 hours of incubation, replication was measured by assaying luciferase activity using 40 μL/well Steady Lite Plus substrate (Perkin Elmer) and measured with ViewLux ultraHTS microplate imager (Perkin Elmer). The inhibitory activity of each compound on the Huh7-luc/neo cells were reported as EC50 values, defined as the compound concentration applied to the PBMCs resulting in a 50% reduction of luciferase activity which in turn indicates the degree of replication of the replicon RNA on transfer of a defined amount of PBMC culture medium. Recombinant interferon α-2a (Roferon-A) was used as a standard control compound.

SMILES | EC50 [nM]
Nc1nc(-c2ncc[nH]2)nc2c1[nH]c(=O)n2Cc1ccccc1 [Compound 4] | 160
Cc1ccc(Cn2c(=O)[nH]c3c(N)nc(-c4ncc[nH]4)nc32)cn1 [Compound 9] | 50
Nc1nc(-c2nc(C3CC3)c[nH]2)nc2c1[nH]c(=O)n2Cc1ccc2c(c1)CNCC2 [Compound 60] | 34
Nc1nc(-c2nc(C3CC3)c[nH]2)nc2c1[nH]c(=O)n2CCCCCCN1CCCC1 [Compound 62] | 700
COCCc1nnc(-c2nc(N)c3[nH]c(=O)n(Cc4ccccc4)c3n2)o1 [Compound 34] | 690
Nc1nc(-n2cccn2)nc2c1[nH]c(=O)n2Cc1ccccc1 [Compound 36] | 47
Cc1[nH]c(-c2nc(N)c3[nH]c(=O)n(Cc4ccccc4)c3n2)nc1C1CC1 [Compound 5] | 200
Nc1nc(-c2ncc[nH]2)nc2c1[nH]c(=O)n2CC1CCOCC1 [Compound 63] | 6720

Same assay, conditions: concentration applied to PBMCs giving 50% reduction of replicon luciferase activity

SMILES | EC50 [nM]
CN1CCN(CCCCCn2c(=O)[nH]c3c(N)nc(-c4ncc[nH]4)nc32)CC1 [Compound 61] | 1340

The compounds below were run on HEK-ISRE-luc cells with conditioned media from PBMC (assay: Interferon production in human PBMC (PBMC HEK-ISRE-luc LEC)). Conditions: Homo sapiens, PBMC; lowest effective concentration; read-out: PBMC HEK-ISRE-luc (LEC).
Assay type: cell-based
Description: Measurement of Interferon Production in Human PBMC (PBMC HEK-ISRE-Luc LEC)
Activation of human TLR7 results in robust production of interferon by plasmacytoid dendritic cells present in human blood. The potential of compounds to induce interferon was evaluated by determination of interferon in the conditioned media from peripheral blood mononuclear cells (PBMC). The presence of interferon in the samples was determined, using an interferon reporter cell line stably expressing an interferon-stimulated responsive elements (ISRE)-luc reporter construct. The ISRE element with sequence GAAACTGAAACT (SEQ ID NO: 1) is highly responsive to the STAT1-STAT2-IRF9 transcription factor, which becomes activated upon binding of IFN-I to the IFN receptor. Briefly, PBMCs were prepared from buffy coats of at least two donors using a standard Ficoll centrifugation protocol. Isolated PBMCs were resuspended in RPMI medium supplemented with 10% human AB serum and 2×10^5 cells/well were dispensed into 384-well plates containing compounds (70 μL total volume). After overnight incubation of the PBMCs with the compounds, 10 μL of supernatant was transferred to 384-well plates containing 5×10^3 HEK-ISRE-luc cells/well in 30 μL (plated the day before). Following 24 hours of incubation, activation of the ISRE elements was measured by assaying luciferase activity using 40 μL/well Steady Lite Plus substrate (Perkin Elmer) and measured with ViewLux ultraHTS microplate imager (Perkin Elmer). The stimulating activity of each compound on the HEK-ISRE-luc cells was reported as LEC. The LEC in turn indicates the degree of ISRE activation on transfer of a defined amount of PBMC culture medium.
Recombinant interferon alfa-2a (Roferon-A) was used as a standard control compound.

SMILES | minimal effective concentration [µM]
Nc1nc(-c2ncc[nH]2)nc2c1[nH]c(=O)n2Cc1ccccc1 [Compound 4] | 0.12
Cc1ccc(Cn2c(=O)[nH]c3c(N)nc(-c4ncc[nH]4)nc32)cn1 [Compound 9] | 0.03
Nc1nc(-c2nc(C3CC3)c[nH]2)nc2c1[nH]c(=O)n2Cc1ccc2c(c1)CNCC2 [Compound 60] | 0.019
Nc1nc(-c2nc(C3CC3)c[nH]2)nc2c1[nH]c(=O)n2CCCCCCN1CCCC1 [Compound 62] | 0.72
COCCc1nnc(-c2nc(N)c3[nH]c(=O)n(Cc4ccccc4)c3n2)o1 [Compound 34] | 0.49
Nc1nc(-n2cccn2)nc2c1[nH]c(=O)n2Cc1ccccc1 [Compound 36] | 0.033
Cc1[nH]c(-c2nc(N)c3[nH]c(=O)n(Cc4ccccc4)c3n2)nc1C1CC1 [Compound 5] | 0.13
Nc1nc(-c2ncc[nH]2)nc2c1[nH]c(=O)n2CC1CCOCC1 [Compound 63] | 4.39

Same assay, conditions: lowest effective concentration

SMILES | PBMC HEK-ISRE-luc (LEC) [µM]
CN1CCN(CCCCCn2c(=O)[nH]c3c(N)nc(-c4ncc[nH]4)nc32)CC1 [Compound 61] | 0.95

The compounds below were run against human TLR7 (Homo sapiens (Human), UniProt Q9NYK1) (assay: Reporter assay for TLR7 activity, HEK293 transiently transfected with wild type TLR7 and NFκB-luc). Conditions: lowest effective concentration; 48 h transfection.
Assay type: cell-based

Chain of human TLR7 (Q9NYK1 27-1049): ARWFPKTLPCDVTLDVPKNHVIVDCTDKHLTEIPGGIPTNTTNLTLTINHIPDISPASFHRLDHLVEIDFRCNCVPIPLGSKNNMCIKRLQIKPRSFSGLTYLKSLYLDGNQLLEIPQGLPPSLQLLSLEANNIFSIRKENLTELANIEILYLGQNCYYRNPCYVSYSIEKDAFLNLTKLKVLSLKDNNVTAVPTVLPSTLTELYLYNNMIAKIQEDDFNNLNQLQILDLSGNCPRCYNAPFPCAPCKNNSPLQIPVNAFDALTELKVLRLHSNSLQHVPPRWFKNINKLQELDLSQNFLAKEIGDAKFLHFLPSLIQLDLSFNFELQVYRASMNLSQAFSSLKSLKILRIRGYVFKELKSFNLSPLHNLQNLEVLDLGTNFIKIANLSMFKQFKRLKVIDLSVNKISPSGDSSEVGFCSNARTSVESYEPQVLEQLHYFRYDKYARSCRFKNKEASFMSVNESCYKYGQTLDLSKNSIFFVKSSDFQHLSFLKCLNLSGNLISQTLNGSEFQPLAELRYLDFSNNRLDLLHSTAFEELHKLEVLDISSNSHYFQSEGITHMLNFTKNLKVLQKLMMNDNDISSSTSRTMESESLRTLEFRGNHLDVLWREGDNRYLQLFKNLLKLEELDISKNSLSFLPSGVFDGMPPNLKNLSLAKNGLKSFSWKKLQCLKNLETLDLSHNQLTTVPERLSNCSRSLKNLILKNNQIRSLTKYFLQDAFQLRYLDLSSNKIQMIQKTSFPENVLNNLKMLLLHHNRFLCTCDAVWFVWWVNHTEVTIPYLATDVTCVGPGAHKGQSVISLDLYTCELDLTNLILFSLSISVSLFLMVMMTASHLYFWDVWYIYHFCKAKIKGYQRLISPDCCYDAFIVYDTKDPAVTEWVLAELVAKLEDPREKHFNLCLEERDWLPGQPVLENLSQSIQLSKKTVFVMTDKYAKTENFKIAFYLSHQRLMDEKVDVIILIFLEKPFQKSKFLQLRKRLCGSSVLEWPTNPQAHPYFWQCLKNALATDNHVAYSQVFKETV

SMILES | TLR7-wt_LEC 48 h [µM]
Nc1nc(-c2ncc[nH]2)nc2c1[nH]c(=O)n2Cc1ccccc1 [Compound 4] | 1.23
Cc1ccc(Cn2c(=O)[nH]c3c(N)nc(-c4ncc[nH]4)nc32)cn1 [Compound 9] | 0.88
CN1CCN(CCCCCn2c(=O)[nH]c3c(N)nc(-c4ncc[nH]4)nc32)CC1 [Compound 61] | >25
Nc1nc(-c2nc(C3CC3)c[nH]2)nc2c1[nH]c(=O)n2Cc1ccc2c(c1)CNCC2 [Compound 60] | >25
Nc1nc(-c2nc(C3CC3)c[nH]2)nc2c1[nH]c(=O)n2CCCCCCN1CCCC1 [Compound 62] | 21.2
COCCc1nnc(-c2nc(N)c3[nH]c(=O)n(Cc4ccccc4)c3n2)o1 [Compound 34] | >25
Nc1nc(-n2cccn2)nc2c1[nH]c(=O)n2Cc1ccccc1 [Compound 36] | 0.22
Cc1[nH]c(-c2nc(N)c3[nH]c(=O)n(Cc4ccccc4)c3n2)nc1C1CC1 [Compound 5] | 21.47
Nc1nc(-c2ncc[nH]2)nc2c1[nH]c(=O)n2CC1CCOCC1 [Compound 63] | >25
